US20260092074A1, “Annelated Pyridines as Steroidogenesis Inhibitors, Preparation Method and Use Thereof” (Guangzhou Vinnocent Pharmaceutical Limited, priority 2022, published 2026)

What follows are compounds tested against T1, human CYP11B2 (Homo sapiens, UniProt P19099) (assay: Inhibition of hCYP11B2 in transfected V79 cells). Settings: hamster V79 cells expressing human CYP11B2; substrate 11-deoxycorticosterone 200 nM.
T1 construct: expressed in transfected cells
T1 sequence (P19099 25-503): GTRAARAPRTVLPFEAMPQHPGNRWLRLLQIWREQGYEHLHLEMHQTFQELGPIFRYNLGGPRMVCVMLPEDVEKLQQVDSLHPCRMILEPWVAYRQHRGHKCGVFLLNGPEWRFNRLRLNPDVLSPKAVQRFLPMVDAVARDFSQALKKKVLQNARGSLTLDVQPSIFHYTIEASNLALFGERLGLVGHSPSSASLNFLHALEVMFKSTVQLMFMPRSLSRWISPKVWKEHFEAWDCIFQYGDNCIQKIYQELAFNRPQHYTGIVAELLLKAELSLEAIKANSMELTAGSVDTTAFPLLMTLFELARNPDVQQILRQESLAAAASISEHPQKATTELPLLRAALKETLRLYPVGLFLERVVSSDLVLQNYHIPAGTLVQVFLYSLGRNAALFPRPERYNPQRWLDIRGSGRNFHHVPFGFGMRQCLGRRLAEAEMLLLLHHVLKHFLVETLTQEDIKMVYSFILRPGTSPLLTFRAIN
Format: cell-based
Method: (§1) Genes of human CYP11B2 and rat NADPH-P450 reductase were transfected into hamster V79 cells using a lentivirus vector, and stably-expressing cell lines were selected by taking advantages of the associated puromycin-resistance gene. Cultured cells were diluted and seeded in a 96-well plate with an amount of approximately 10,000 per well. After pre-incubation with suitable concentrations of the test compounds for 2 hours, 11-deoxycorticosterone of 200 nM was added as the substrate to initiate the catalytic reaction. After further incubation for 30 minutes, it was quenched with ethyl acetate. Subsequently, the substrate and product(s) were quantified using LC-MS/MS or HPLC at 260 nm, and the IC50 values were calculated according to inhibitory percentage.

Row | SMILES | IC50 [nM]
1 | Cc1ccc(C(=O)N2CCc3c(-c4ccc(C#N)cc4)cncc32)cc1 [C33, 4-(1-(4-Methylbenzoyl)-2,3-dihydro-1H-pyrrolo[2,3-c]pyridin-4-yl)benzonitrile] | 25
2 | N#Cc1ccc(-c2cncc3c2CCN3C(=O)c2ccccc2[N+](=O)[O-])cc1 [C35, 4-(1-(2-Nitrobenzoyl)-2,3-dihydro-1H-pyrrolo[2,3-c]pyridin-4-yl)benzonitrile] | 31
3 | Cc1ccccc1C(=O)N1CCc2c(-c3ccc(C#N)cc3)cncc21 [C36, 4-(1-(2-Methylbenzoyl)-2,3-dihydro-1H-pyrrolo[2,3-c]pyridin-4-yl)benzonitrile] | 28
4 | N#Cc1ccc(-c2cncc3c2CCN3C(=O)c2cccc(C#N)c2)cc1 [C37, 3-(4-(4-Cyanophenyl)-2,3-dihydro-1H-pyrrolo[2,3-c]pyridine-1-carbonyl)benzonitrile] | 60
5 | N#Cc1ccc(-c2cncc3c2CCN3C(=O)c2ccc(Cl)cc2)cc1 [C38, 4-(1-(4-Chlorobenzoyl)-2,3-dihydro-1H-pyrrolo[2,3-c]pyridin-4-yl)benzonitrile] | 40
6 | Cc1cccc(C(=O)N2CCc3c(-c4ccc(C#N)cc4)cncc32)c1 [C40, 4-(1-(3-Methylbenzoyl)-2,3-dihydro-1H-pyrrolo[2,3-c]pyridin-4-yl)benzonitrile] | 29
7 | N#Cc1ccc(-c2cncc3c2CCN3C(=O)c2ccccc2)cc1 [C41, 4-(1-Benzoyl-2,3-dihydro-1H-pyrrolo[2,3-c]pyridin-4-yl)benzonitrile] | 40
8 | CC(C)(C)C(=O)N1CCc2c(-c3ccc(C#N)cc3)cncc21 [C42, 4-(1-Pivaloyl-2,3-dihydro-1H-pyrrolo[2,3-c]pyridin-4-yl)benzonitrile] | 45
9 | N#Cc1ccc(-c2cncc3c2CCN3C(=O)CCl)cc1 [C43, 4-(1-(2-Chloroacetyl)-2,3-dihydro-1H-pyrrolo[2,3-c]pyridin-4-yl)benzonitrile] | 99
10 | N#Cc1ccc(-c2cncc3c2CCN3C(=O)c2ccco2)cc1 [C44, 4-(1-(Furan-2-carbonyl)-2,3-dihydro-1H-pyrrolo[2,3-c]pyridin-4-yl)benzonitrile] | 27
11 | N#Cc1ccc(-c2cncc3c2CCN3C(=O)c2ccc(CBr)cc2)cc1 [C49, 4-(1-(4-(Bromomethyl)benzoyl)-2,3-dihydro-1H-pyrrolo[2,3-c]pyridin-4-yl)benzonitrile] | 25
12 | O=C(c1ccccc1F)N1CCc2c(-c3ccc4[nH]ncc4c3)cncc21 [C50, (4-(1H-Indazol-5-yl)-2,3-dihydro-1H-pyrrolo[2,3-c]pyridin-1-yl)(2-fluorophenyl)methanone] | 97
13 | O=C(c1ccccc1F)N1CCc2c(-c3cccc(F)c3)cncc21 [C52, (2-fluorophenyl)(4-(3-fluorophenyl)-2,3-dihydro-1H-pyrrolo[2,3-c]pyridin-1-yl)methanone] | 44
14 | O=C(c1ccccc1F)N1CCc2c(-c3ccc(Cl)cc3)cncc21 [C54, (4-(4-Chlorophenyl)-2,3-dihydro-1H-pyrrolo[2,3-c]pyridin-1-yl)(2-fluorophenyl)methanone] | 45

Now those with a lower IC50, led by results:

Row | IC50 [nM] | SMILES
15 | 2.3 | N#Cc1ccc(-c2cncc3c2CCN3C(=O)c2cccc([N+](=O)[O-])c2)cc1 [C27, 4-(1-(3-Nitrobenzoyl)-2,3-dihydro-1H-pyrrolo[2,3-c]pyridin-4-yl)benzonitrile]
16 | 7 | N#Cc1ccc(-c2cncc3c2CCN3C(=O)c2cccc(F)c2)cc1 [C28, 4-(1-(3-fluorobenzoyl)-2,3-dihydro-1H-pyrrolo[2,3-c]pyridin-4-yl)benzonitrile]
17 | 1.7 | N#Cc1ccc(-c2cncc3c2CCN3C(=O)c2cccnc2)cc1 [C29, 4-(1-Nicotinoyl-2,3-dihydro-1H-pyrrolo[2,3-c]pyridin-4-yl)benzonitrile]
18 | 11 | N#Cc1ccc(-c2cncc3c2CCN3C(=O)c2ccc([N+](=O)[O-])cc2)cc1 [C30, 4-(1-(4-Nitrobenzoyl)-2,3-dihydro-1H-pyrrolo[2,3-c]pyridin-4-yl)benzonitrile]
19 | 4.6 | N#Cc1ccc(-c2cncc3c2CCN3C(=O)c2ccccc2F)cc1 [C31, 4-(1-(2-Fluorobenzoyl)-2,3-dihydro-1H-pyrrolo[2,3-c]pyridin-4-yl)benzonitrile]
20 | 18 | N#Cc1ccc(-c2cncc3c2CCN3C(=O)c2ccccc2C(F)(F)F)cc1 [C32, 4-(1-(2-(Trifluoromethyl)benzoyl)-2,3-dihydro-1H-pyrrolo[2,3-c]pyridin-4-yl)benzonitrile]
21 | 22 | COc1ccccc1C(=O)N1CCc2c(-c3ccc(C#N)cc3)cncc21 [C34, 4-(1-(2-Methoxybenzoyl)-2,3-dihydro-1H-pyrrolo[2,3-c]pyridin-4-yl)benzonitrile]
22 | 23 | N#Cc1ccc(-c2cncc3c2CCN3C(=O)c2cccc(Cl)c2)cc1 [C39, 4-(1-(3-Chlorobenzoyl)-2,3-dihydro-1H-pyrrolo[2,3-c]pyridin-4-yl)benzonitrile]
23 | 20 | Cc1ccsc1C(=O)N1CCc2c(-c3ccc(C#N)cc3)cncc21 [C45, 4-(1-(3-Methylthiophene-2-carbonyl)-2,3-dihydro-1H-pyrrolo[2,3-c]pyridin-4-yl)benzonitrile]
24 | 5.4 | N#Cc1ccc(-c2cncc3c2CCN3C(=O)c2cccs2)cc1 [C46, 4-(1-(Thiophene-2-carbonyl)-2,3-dihydro-1H-pyrrolo[2,3-c]pyridin-4-yl)benzonitrile]
25 | 17 | COC(=O)c1ccc(C(=O)N2CCc3c(-c4ccc(C#N)cc4)cncc32)cc1 [C47]
26 | 7.3 | N#Cc1ccc(C(=O)N2CCc3c(-c4ccc(C#N)cc4)cncc32)cc1 [C48, 4-(1-(4-Cyanobenzoyl)-2,3-dihydro-1H-pyrrolo[2,3-c]pyridin-4-yl)benzonitrile]
27 | 23 | Cn1ncc2cc(-c3cncc4c3CCN4C(=O)c3ccccc3F)ccc21 [C51, (2-Fluorophenyl)(4-(1-methyl-1H-indazol-5-yl)-2,3-dihydro-1H-pyrrolo[2,3-c]pyridin-1-yl)methanone]
28 | 11 | O=C(c1ccccc1F)N1CCc2c(-c3cccc([N+](=O)[O-])c3)cncc21 [C53, (2-Fluorophenyl)(4-(3-nitrophenyl)-2,3-dihydro-1H-pyrrolo[2,3-c]pyridin-1-yl)methanone]

These compounds were tested against T2, human CYP11B1 (Homo sapiens, UniProt P15538) (assay: Inhibition of hCYP11B1 in transfected V79 cells). Settings: hamster V79 cells expressing human CYP11B1; substrate 11-deoxycortisol 200 nM.
T2 construct: expressed in transfected cells
T2 sequence (P15538 25-503): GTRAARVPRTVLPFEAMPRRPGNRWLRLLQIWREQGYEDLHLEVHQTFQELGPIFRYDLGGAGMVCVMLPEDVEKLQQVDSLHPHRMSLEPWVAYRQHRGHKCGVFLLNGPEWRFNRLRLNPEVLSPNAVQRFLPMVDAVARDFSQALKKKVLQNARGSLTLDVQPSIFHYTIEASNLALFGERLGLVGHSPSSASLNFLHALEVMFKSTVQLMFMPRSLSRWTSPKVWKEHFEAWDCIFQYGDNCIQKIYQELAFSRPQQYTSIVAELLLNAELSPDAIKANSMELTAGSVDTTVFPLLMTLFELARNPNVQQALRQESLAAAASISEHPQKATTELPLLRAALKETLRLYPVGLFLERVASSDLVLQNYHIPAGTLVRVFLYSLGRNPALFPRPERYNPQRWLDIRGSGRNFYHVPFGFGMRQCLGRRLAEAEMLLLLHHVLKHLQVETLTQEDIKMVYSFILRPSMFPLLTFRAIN
Format: cell-based
Method: as §1, with “CYP11B1” for “CYP11B2”, “11-deoxycortisol” for “11-deoxycorticosterone”

Row | SMILES | IC50 [nM]
29 | Cc1ccc(C(=O)N2CCc3c(-c4ccc(C#N)cc4)cncc32)cc1 [C33, 4-(1-(4-Methylbenzoyl)-2,3-dihydro-1H-pyrrolo[2,3-c]pyridin-4-yl)benzonitrile] | 245
30 | N#Cc1ccc(-c2cncc3c2CCN3C(=O)c2ccccc2[N+](=O)[O-])cc1 [C35, 4-(1-(2-Nitrobenzoyl)-2,3-dihydro-1H-pyrrolo[2,3-c]pyridin-4-yl)benzonitrile] | 459
31 | Cc1ccccc1C(=O)N1CCc2c(-c3ccc(C#N)cc3)cncc21 [C36, 4-(1-(2-Methylbenzoyl)-2,3-dihydro-1H-pyrrolo[2,3-c]pyridin-4-yl)benzonitrile] | 297
32 | N#Cc1ccc(-c2cncc3c2CCN3C(=O)c2cccc(C#N)c2)cc1 [C37, 3-(4-(4-Cyanophenyl)-2,3-dihydro-1H-pyrrolo[2,3-c]pyridine-1-carbonyl)benzonitrile] | 766
33 | N#Cc1ccc(-c2cncc3c2CCN3C(=O)c2ccc(Cl)cc2)cc1 [C38, 4-(1-(4-Chlorobenzoyl)-2,3-dihydro-1H-pyrrolo[2,3-c]pyridin-4-yl)benzonitrile] | 606
34 | Cc1cccc(C(=O)N2CCc3c(-c4ccc(C#N)cc4)cncc32)c1 [C40, 4-(1-(3-Methylbenzoyl)-2,3-dihydro-1H-pyrrolo[2,3-c]pyridin-4-yl)benzonitrile] | 352
35 | N#Cc1ccc(-c2cncc3c2CCN3C(=O)c2ccccc2)cc1 [C41, 4-(1-Benzoyl-2,3-dihydro-1H-pyrrolo[2,3-c]pyridin-4-yl)benzonitrile] | 353
36 | CC(C)(C)C(=O)N1CCc2c(-c3ccc(C#N)cc3)cncc21 [C42, 4-(1-Pivaloyl-2,3-dihydro-1H-pyrrolo[2,3-c]pyridin-4-yl)benzonitrile] | 1570
37 | N#Cc1ccc(-c2cncc3c2CCN3C(=O)CCl)cc1 [C43, 4-(1-(2-Chloroacetyl)-2,3-dihydro-1H-pyrrolo[2,3-c]pyridin-4-yl)benzonitrile] | 897
38 | N#Cc1ccc(-c2cncc3c2CCN3C(=O)c2ccco2)cc1 [C44, 4-(1-(Furan-2-carbonyl)-2,3-dihydro-1H-pyrrolo[2,3-c]pyridin-4-yl)benzonitrile] | 139
39 | N#Cc1ccc(-c2cncc3c2CCN3C(=O)c2ccc(CBr)cc2)cc1 [C49, 4-(1-(4-(Bromomethyl)benzoyl)-2,3-dihydro-1H-pyrrolo[2,3-c]pyridin-4-yl)benzonitrile] | 971
40 | O=C(c1ccccc1F)N1CCc2c(-c3ccc4[nH]ncc4c3)cncc21 [C50, (4-(1H-Indazol-5-yl)-2,3-dihydro-1H-pyrrolo[2,3-c]pyridin-1-yl)(2-fluorophenyl)methanone] | 1270
41 | O=C(c1ccccc1F)N1CCc2c(-c3cccc(F)c3)cncc21 [C52, (2-fluorophenyl)(4-(3-fluorophenyl)-2,3-dihydro-1H-pyrrolo[2,3-c]pyridin-1-yl)methanone] | 891
42 | O=C(c1ccccc1F)N1CCc2c(-c3ccc(Cl)cc3)cncc21 [C54, (4-(4-Chlorophenyl)-2,3-dihydro-1H-pyrrolo[2,3-c]pyridin-1-yl)(2-fluorophenyl)methanone] | 895

The next lines start with the values.

Row | IC50 [nM] | SMILES
43 | 117 | N#Cc1ccc(-c2cncc3c2CCN3C(=O)c2cccc([N+](=O)[O-])c2)cc1 [C27, 4-(1-(3-Nitrobenzoyl)-2,3-dihydro-1H-pyrrolo[2,3-c]pyridin-4-yl)benzonitrile]
44 | 310 | N#Cc1ccc(-c2cncc3c2CCN3C(=O)c2cccc(F)c2)cc1 [C28, 4-(1-(3-fluorobenzoyl)-2,3-dihydro-1H-pyrrolo[2,3-c]pyridin-4-yl)benzonitrile]
45 | 185 | N#Cc1ccc(-c2cncc3c2CCN3C(=O)c2cccnc2)cc1 [C29, 4-(1-Nicotinoyl-2,3-dihydro-1H-pyrrolo[2,3-c]pyridin-4-yl)benzonitrile]
46 | 472 | N#Cc1ccc(-c2cncc3c2CCN3C(=O)c2ccc([N+](=O)[O-])cc2)cc1 [C30, 4-(1-(4-Nitrobenzoyl)-2,3-dihydro-1H-pyrrolo[2,3-c]pyridin-4-yl)benzonitrile]
47 | 305 | N#Cc1ccc(-c2cncc3c2CCN3C(=O)c2ccccc2F)cc1 [C31, 4-(1-(2-Fluorobenzoyl)-2,3-dihydro-1H-pyrrolo[2,3-c]pyridin-4-yl)benzonitrile]
48 | 233 | N#Cc1ccc(-c2cncc3c2CCN3C(=O)c2ccccc2C(F)(F)F)cc1 [C32, 4-(1-(2-(Trifluoromethyl)benzoyl)-2,3-dihydro-1H-pyrrolo[2,3-c]pyridin-4-yl)benzonitrile]
49 | 284 | COc1ccccc1C(=O)N1CCc2c(-c3ccc(C#N)cc3)cncc21 [C34, 4-(1-(2-Methoxybenzoyl)-2,3-dihydro-1H-pyrrolo[2,3-c]pyridin-4-yl)benzonitrile]
50 | 298 | N#Cc1ccc(-c2cncc3c2CCN3C(=O)c2cccc(Cl)c2)cc1 [C39, 4-(1-(3-Chlorobenzoyl)-2,3-dihydro-1H-pyrrolo[2,3-c]pyridin-4-yl)benzonitrile]
51 | 152 | Cc1ccsc1C(=O)N1CCc2c(-c3ccc(C#N)cc3)cncc21 [C45, 4-(1-(3-Methylthiophene-2-carbonyl)-2,3-dihydro-1H-pyrrolo[2,3-c]pyridin-4-yl)benzonitrile]
52 | 274 | N#Cc1ccc(-c2cncc3c2CCN3C(=O)c2cccs2)cc1 [C46, 4-(1-(Thiophene-2-carbonyl)-2,3-dihydro-1H-pyrrolo[2,3-c]pyridin-4-yl)benzonitrile]
53 | 19 | COC(=O)c1ccc(C(=O)N2CCc3c(-c4ccc(C#N)cc4)cncc32)cc1 [C47]
54 | 762 | N#Cc1ccc(C(=O)N2CCc3c(-c4ccc(C#N)cc4)cncc32)cc1 [C48, 4-(1-(4-Cyanobenzoyl)-2,3-dihydro-1H-pyrrolo[2,3-c]pyridin-4-yl)benzonitrile]
55 | 4250 | Cn1ncc2cc(-c3cncc4c3CCN4C(=O)c3ccccc3F)ccc21 [C51, (2-Fluorophenyl)(4-(1-methyl-1H-indazol-5-yl)-2,3-dihydro-1H-pyrrolo[2,3-c]pyridin-1-yl)methanone]
56 | 378 | O=C(c1ccccc1F)N1CCc2c(-c3cccc([N+](=O)[O-])c3)cncc21 [C53, (2-Fluorophenyl)(4-(3-nitrophenyl)-2,3-dihydro-1H-pyrrolo[2,3-c]pyridin-1-yl)methanone]
